Measurements: patent US20230017045A1, “PYRIDINE AND PYRIMIDINE CARBOXYLATE HERBICIDES AND METHODS OF USE THEREOF” (Dow AgroSciences LLC, priority 2017, published 2023)
Like-named read-outs stand apart in the source and are kept apart here.

System: test plant species
Experiment: Post-emergent herbicidal activity test (greenhouse, foliar spray, visual growth reduction)
Type: in vivo
Settings: post-emergence, 336 h, 140 g ai/ha
Procedure, shortened: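 Plants grown in greenhouse (15 h photoperiod, 23-29° C day/22-28° C night) to first or second true leaf stage were sprayed overhead with compound in acetone/water/isopropanol/DMSO/crop oil/X-77 carrier at 187 L/ha. Injury was scored visually after 14 d on a 0-100% scale versus solvent-blank and untreated controls.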

[1] = ECHCG: barnyardgrass (Echinochloa crus-galli), 14 days after application, read-out: Visual Growth Reduction (%) 14 Days After Application, ECHCG
[2] = IPOHE: ivy-leaf morning glory (Ipomoea hederacea), 14 days after application, read-out: Visual Growth Reduction (%) 14 Days After Application, IPOHE
[3] = KCHSC: kochia (Bassia scoparia), 14 days after application, read-out: Visual Growth Reduction (%) 14 Days After Application, KCHSC
[4] = ORYSA: rice (Oryza sativa), 14 days after application, read-out: Visual Growth Reduction (%) 14 Days After Application, ORYSA
[5] = SETFA: giant foxtail (Setaria faberi), 14 days after application, read-out: Visual Growth Reduction (%) 14 Days After Application, SETFA
[6] = SORVU: grain sorghum (Sorghum vulgare), 14 days after application, read-out: Visual Growth Reduction (%) 14 Days After Application, SORVU
[7] = STEME: common chickweed (Stellaria media), 14 days after application, read-out: Visual Growth Reduction (%) 14 Days After Application, STEME
[8] = TRZAS: wheat, spring (Triticum aestivum), 14 days after application, read-out: Visual Growth Reduction (%) 14 Days After Application, TRZAS
[9] = blackgrass (Alopecurus myosuroides), 14 Days After Application, read-out: Visual Growth Reduction (%) ALOMY
[10] = canada thistle (Cirsium arvense), 14 Days After Application, read-out: Visual Growth Reduction (%) CIRAR
[11] = crabgrass (Digitaria sanguinalis), 14 Days After Application, read-out: Visual Growth Reduction (%) DIGSA
[12] = lambsquarters (Chenopodium album), 14 Days After Application, read-out: Visual Growth Reduction (%) CHEAL
[13] = redroot pigweed (Amaranthus retroflexus), 14 Days After Application, read-out: Visual Growth Reduction (%) AMARE
[14] = wild oat (Avena fatua), 14 Days After Application, read-out: Visual Growth Reduction (%) AVEFA
[15] = yellow nutsedge (Cyperus esculentus), 14 Days After Application, read-out: Visual Growth Reduction (%) CYPES
[16] = ALOMY: blackgrass (Alopecurus myosuroides), 14 days after application, read-out: Visual Growth Reduction (%) 14 Days After Application, ALOMY
[17] = AMARE: redroot pigweed (Amaranthus retroflexus), 14 days after application, read-out: Visual Growth Reduction (%) 14 Days After Application, AMARE
[18] = AVEFA: wild oat (Avena fatua), 14 days after application, read-out: Visual Growth Reduction (%) 14 Days After Application, AVEFA
[19] = CHEAL: lambsquarters (Chenopodium album), 14 days after application, read-out: Visual Growth Reduction (%) 14 Days After Application, CHEAL
[20] = CIRAR: canada thistle (Cirsium arvense), 14 days after application, read-out: Visual Growth Reduction (%) 14 Days After Application, CIRAR
[21] = CYPES: yellow nutsedge (Cyperus esculentus), 14 days after application, read-out: Visual Growth Reduction (%) 14 Days After Application, CYPES
[22] = DIGSA: crabgrass (Digitaria sanguinalis), 14 days after application, read-out: Visual Growth Reduction (%) 14 Days After Application, DIGSA

| Compound | pest or weed control at 140 g/ha [1] [%] | pest or weed control at 140 g/ha [2] [%] | pest or weed control at 140 g/ha [3] [%] | pest or weed control at 140 g/ha [4] [%] | pest or weed control at 140 g/ha [5] [%] | pest or weed control at 140 g/ha [6] [%] | pest or weed control at 140 g/ha [7] [%] | pest or weed control at 140 g/ha [8] [%] | pest or weed control at 140 g/ha [9] [%] | pest or weed control at 140 g/ha [11] [%] | pest or weed control at 140 g/ha [12] [%] | pest or weed control at 140 g/ha [13] [%] | pest or weed control at 140 g/ha [14] [%] | pest or weed control at 140 g/ha [16] [%] | pest or weed control at 140 g/ha [17] [%] | pest or weed control at 140 g/ha [18] [%] | pest or weed control at 140 g/ha [19] [%] | pest or weed control at 140 g/ha [20] [%] | pest or weed control at 140 g/ha [21] [%] | pest or weed control at 140 g/ha [22] [%] | also measured |
| --- | --- | --- | --- | --- | --- | --- | --- | --- | --- | --- | --- | --- | --- | --- | --- | --- | --- | --- | --- | --- | --- |
| COC(=O)c1nc(-c2cc3nonc3cc2Cl)ccc1Cl [F261, Methyl 3-chloro-6-(6-chlorobenzo[c][1,2,5]oxadiazol-5-yl)picolinate] | 0 to 29 | 75 to 84 | 0 to 29 | 0 to 29 | 0 to 29 | 0 to 29 | 0 to 29 | 0 to 29 | 0 to 29 | 60 to 74 | 60 to 74 | 0 to 29 | 0 to 29 | – | – | – | – | – | – | – | pest or weed control at 140 g/ha [10]: 30 to 44%; pest or weed control at 140 g/ha [15]: 0 to 29% |
| COC(=O)c1nc(-c2cc(F)c(C(F)(F)F)cc2F)c(F)cc1Cl [F324, Methyl 3-chloro-6-(2,5-difluoro-4-(trifluoromethyl)phenyl)-5-fluoropicolinate] | 0 to 29 | 95 to 100 | 85 to 94 | 0 to 29 | 60 to 74 | 75 to 84 | 0 to 29 | 45 to 59 | 30 to 44 | 95 to 100 | 85 to 94 | 95 to 100 | 30 to 44 | – | – | – | – | – | – | – | pest or weed control at 140 g/ha [15]: 60 to 74% |
| COC(=O)c1nc(-c2ccc(Cl)cc2)ccc1Cl [F82, methyl 3-chloro-6-(4-chlorophenyl)picolinate] | 0 to 29 | 75 to 84 | 60 to 74 | 0 to 29 | – | 0 to 29 | 30 to 44 | – | – | – | – | – | – | 0 to 29 | 95 to 100 | 0 to 29 | 60 to 74 | 75 to 84 | 75 to 84 | 0 to 29 | – |
| COC(=O)c1nc(-c2ccc(Cl)cc2Cl)ccc1C [F52, Methyl 6-(2,4-dichlorophenyl)-3-methylpicolinate] | 0 to 29 | – | 0 to 29 | 0 to 29 | 0 to 29 | 0 to 29 | 0 to 29 | 0 to 29 | – | – | – | – | – | 0 to 29 | 0 to 29 | 0 to 29 | 0 to 29 | 0 to 29 | 0 to 29 | 0 to 29 | – |
| COC(=O)c1nc(-c2cc(C(F)(F)F)ccc2Cl)ccc1Cl [F38, Methyl 3-chloro-6-(2-chloro-5-(trifluoromethyl)phenyl)picolinate] | 0 to 29 | 0 to 29 | 0 to 29 | 0 to 29 | 0 to 29 | 0 to 29 | 0 to 29 | 0 to 29 | – | – | – | – | – | 0 to 29 | 0 to 29 | 0 to 29 | 0 to 29 | 0 to 29 | 0 to 29 | 0 to 29 | – |
| COC(=O)c1nc(-c2cnc(C(F)(F)F)cc2Cl)ccc1Cl [F194, Methyl 4′,5-dichloro-6′-(trifluoromethyl)-[2,3′-bipyridine]-6-carboxylate] | 45 to 59 | 95 to 100 | 0 to 29 | 0 to 29 | 0 to 29 | 45 to 59 | 0 to 29 | 0 to 29 | – | – | – | – | – | 0 to 29 | 0 to 29 | 0 to 29 | 30 to 44 | 75 to 84 | 0 to 29 | 0 to 29 | – |
| COC(=O)c1nc(-c2ccc3c(c2OC)OC(F)(F)O3)c(F)cc1Cl [F235, Methyl 3-chloro-6-(2,2-difluoro-4-methoxybenzo[d][1,3]dioxol-5-yl)-5-fluoropicolinate] | 95 to 100 | 95 to 100 | 95 to 100 | 45 to 59 | 95 to 100 | 95 to 100 | 85 to 94 | 95 to 100 | 60 to 74 | 95 to 100 | 95 to 100 | 95 to 100 | 95 to 100 | – | – | – | – | – | – | – | pest or weed control at 140 g/ha [10]: 95 to 100%; pest or weed control at 140 g/ha [15]: 0 to 29% |
| COC(=O)c1nc(-c2ccc(OS(=O)(=O)C(F)(F)F)cc2Cl)ccc1Cl [F364, methyl 3-chloro-6-(2-chloro-4-(((trifluoromethyl)sulfonyl)oxy)phenyl)picolinate] | 0 to 29 | 85 to 94 | 0 to 29 | 0 to 29 | 60 to 74 | 85 to 94 | 0 to 29 | 0 to 29 | 0 to 29 | 75 to 84 | 75 to 84 | 60 to 74 | 0 to 29 | – | – | – | – | – | – | – | pest or weed control at 140 g/ha [10]: 60 to 74%; pest or weed control at 140 g/ha [15]: 0 to 29% |
| COC(=O)c1nc(-c2ccc(OC(C)(C)C)cc2Cl)ccc1Cl [F36, Methyl 6-(4-(tert-butoxy)-2-chlorophenyl)-3-chloropicolinate] | 0 to 29 | 0 to 29 | 0 to 29 | 0 to 29 | 0 to 29 | 0 to 29 | 0 to 29 | 0 to 29 | – | – | – | – | – | 0 to 29 | 0 to 29 | 0 to 29 | 0 to 29 | 0 to 29 | 0 to 29 | 0 to 29 | – |
| COC(=O)c1nc(-c2ccc(SC(F)(F)F)cc2)c(Cl)cc1Cl [F98, Methyl 3,5-dichloro-6-(4-((trifluoromethyl)thio)phenyl)picolinate] | 0 to 29 | 0 to 29 | 0 to 29 | 0 to 29 | 0 to 29 | 0 to 29 | 0 to 29 | 0 to 29 | – | – | – | – | – | 0 to 29 | 0 to 29 | 0 to 29 | 0 to 29 | 0 to 29 | 0 to 29 | 0 to 29 | – |
